From ChEMBL document CHEMBL1811753, “Discovery of potent and selective inhibitors of human platelet-type 12- lipoxygenase” (J Med Chem, 2011)
Calls of active or inactive are those of the source. The rule behind the calls is not given here.

Tests used:
[1] = target: T1, Polyunsaturated fatty acid lipoxygenase ALOX12 (Homo sapiens, UniProt P18054); experiment: Inhibition of human platelet-type N-terminally His6-tagged 12-lipoxygenase assessed as conjugated diene product formation using arachidonic acid by UV-vis spectrophotometer analysis
T1 sequence (P18054 whole entry): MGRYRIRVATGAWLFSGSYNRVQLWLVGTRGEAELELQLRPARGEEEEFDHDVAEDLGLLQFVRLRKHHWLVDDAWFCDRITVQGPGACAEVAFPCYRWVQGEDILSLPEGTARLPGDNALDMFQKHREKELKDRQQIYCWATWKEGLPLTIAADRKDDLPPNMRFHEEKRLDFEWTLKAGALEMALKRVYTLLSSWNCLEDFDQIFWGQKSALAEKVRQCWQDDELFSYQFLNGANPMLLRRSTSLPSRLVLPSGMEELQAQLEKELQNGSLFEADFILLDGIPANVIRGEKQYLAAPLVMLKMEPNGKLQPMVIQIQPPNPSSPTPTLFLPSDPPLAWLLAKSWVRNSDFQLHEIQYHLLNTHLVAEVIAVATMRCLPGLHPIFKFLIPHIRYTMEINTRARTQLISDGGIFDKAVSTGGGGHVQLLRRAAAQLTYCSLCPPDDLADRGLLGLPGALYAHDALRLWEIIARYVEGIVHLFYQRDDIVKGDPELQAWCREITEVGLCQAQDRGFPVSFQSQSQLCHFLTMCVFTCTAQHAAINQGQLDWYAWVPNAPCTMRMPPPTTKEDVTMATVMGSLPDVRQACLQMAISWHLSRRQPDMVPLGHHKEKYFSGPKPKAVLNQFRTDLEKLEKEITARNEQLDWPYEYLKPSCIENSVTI

[2] = target: T2, Polyunsaturated fatty acid lipoxygenase ALOX12 (Homo sapiens) (UniProt P18054); experiment: Uncompetitive inhibition of human platelet-type N-terminally His6-tagged 12-lipoxygenase assessed as 12-HPETE formation using arachidonic acid by Michaelis-Menten equation analysis
T2 sequence (whole entry): T1 sequence (P18054 whole entry)

[3] = target: T2, Polyunsaturated fatty acid lipoxygenase ALOX12 (Homo sapiens); experiment: Competitive inhibition of human platelet-type N-terminally His6-tagged 12-lipoxygenase assessed as 12-HPETE formation using arachidonic acid by Michaelis-Menten equation analysis
[4] = target: T3, Polyunsaturated fatty acid lipoxygenase ALOX15 (Homo sapiens, UniProt P16050); experiment: Inhibition of human reticulocyte N-terminally His6-tagged 15-lipoxygenase-1 assessed as conjugated diene product formation using arachidonic acid by UV-vis spectrophotometer analysis
T3 sequence (P16050 whole entry): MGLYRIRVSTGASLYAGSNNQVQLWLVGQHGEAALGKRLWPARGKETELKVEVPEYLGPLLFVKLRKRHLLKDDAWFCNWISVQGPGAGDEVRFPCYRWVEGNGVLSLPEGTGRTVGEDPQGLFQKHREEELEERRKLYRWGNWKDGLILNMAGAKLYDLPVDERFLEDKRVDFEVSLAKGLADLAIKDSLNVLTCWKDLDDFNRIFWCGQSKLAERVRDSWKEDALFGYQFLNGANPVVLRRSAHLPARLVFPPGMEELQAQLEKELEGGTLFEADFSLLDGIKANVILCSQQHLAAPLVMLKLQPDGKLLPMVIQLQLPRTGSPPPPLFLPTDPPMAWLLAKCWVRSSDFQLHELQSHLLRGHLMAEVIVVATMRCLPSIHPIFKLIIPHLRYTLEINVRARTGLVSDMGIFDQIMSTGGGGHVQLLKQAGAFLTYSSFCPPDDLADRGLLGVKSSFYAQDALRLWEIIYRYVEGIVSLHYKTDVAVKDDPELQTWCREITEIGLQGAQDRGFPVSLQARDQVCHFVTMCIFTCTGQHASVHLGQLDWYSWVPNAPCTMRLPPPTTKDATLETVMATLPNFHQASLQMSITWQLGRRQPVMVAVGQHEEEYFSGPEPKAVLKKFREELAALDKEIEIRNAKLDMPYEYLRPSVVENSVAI

Homo sapiens [5] = species on record: Homo sapiens; experiment: Selectivity ratio of IC50 for human 5-lipoxygenase to IC50 for human platelet-type N-terminally His6-tagged 12-lipoxygenase
Homo sapiens [6] = species on record: Homo sapiens; experiment: Selectivity ratio of IC50 for human reticulocyte N-terminally His6-tagged 15-lipoxygenase-1 to IC50 for human platelet-type N-terminally His6-tagged 12-lipoxygenase
[7] = target: T4, Polyunsaturated fatty acid 5-lipoxygenase (Homo sapiens, UniProt P09917); experiment: Inhibition of human 5-lipoxygenase assessed as conjugated diene product formation using arachidonic acid by UV-vis spectrophotometer analysis
T4 sequence (P09917 whole entry): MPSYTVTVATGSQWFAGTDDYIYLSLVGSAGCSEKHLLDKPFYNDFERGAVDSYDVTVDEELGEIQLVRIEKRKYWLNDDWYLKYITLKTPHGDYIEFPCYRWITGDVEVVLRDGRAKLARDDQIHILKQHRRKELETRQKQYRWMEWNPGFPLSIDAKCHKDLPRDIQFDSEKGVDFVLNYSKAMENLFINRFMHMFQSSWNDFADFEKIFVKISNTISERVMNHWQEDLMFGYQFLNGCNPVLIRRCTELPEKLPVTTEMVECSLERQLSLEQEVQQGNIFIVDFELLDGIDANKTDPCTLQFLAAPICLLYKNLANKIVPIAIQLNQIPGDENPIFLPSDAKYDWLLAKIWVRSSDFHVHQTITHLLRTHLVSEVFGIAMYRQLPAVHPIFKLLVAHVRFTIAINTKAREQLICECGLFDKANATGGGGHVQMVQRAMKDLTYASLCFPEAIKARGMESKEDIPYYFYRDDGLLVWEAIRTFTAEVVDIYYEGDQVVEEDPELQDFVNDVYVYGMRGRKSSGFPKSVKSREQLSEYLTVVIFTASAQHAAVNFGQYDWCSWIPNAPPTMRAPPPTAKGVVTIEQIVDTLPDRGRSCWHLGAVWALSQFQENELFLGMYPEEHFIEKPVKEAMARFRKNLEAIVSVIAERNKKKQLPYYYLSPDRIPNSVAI

[8] = target: T3, Polyunsaturated fatty acid lipoxygenase ALOX15
[9] = target: T1, Polyunsaturated fatty acid lipoxygenase ALOX12; experiment: Inhibition of human platelet-type 12-lipoxygenase
[10] = target: T5, Polyunsaturated fatty acid lipoxygenase ALOX15B (Homo sapiens, UniProt O15296); experiment: Inhibition of human reticulocyte N-terminally His6-tagged 15-lipoxygenase-2 assessed as conjugated diene product formation using arachidonic acid by UV-vis spectrophotometer analysis
T5 sequence (O15296 whole entry): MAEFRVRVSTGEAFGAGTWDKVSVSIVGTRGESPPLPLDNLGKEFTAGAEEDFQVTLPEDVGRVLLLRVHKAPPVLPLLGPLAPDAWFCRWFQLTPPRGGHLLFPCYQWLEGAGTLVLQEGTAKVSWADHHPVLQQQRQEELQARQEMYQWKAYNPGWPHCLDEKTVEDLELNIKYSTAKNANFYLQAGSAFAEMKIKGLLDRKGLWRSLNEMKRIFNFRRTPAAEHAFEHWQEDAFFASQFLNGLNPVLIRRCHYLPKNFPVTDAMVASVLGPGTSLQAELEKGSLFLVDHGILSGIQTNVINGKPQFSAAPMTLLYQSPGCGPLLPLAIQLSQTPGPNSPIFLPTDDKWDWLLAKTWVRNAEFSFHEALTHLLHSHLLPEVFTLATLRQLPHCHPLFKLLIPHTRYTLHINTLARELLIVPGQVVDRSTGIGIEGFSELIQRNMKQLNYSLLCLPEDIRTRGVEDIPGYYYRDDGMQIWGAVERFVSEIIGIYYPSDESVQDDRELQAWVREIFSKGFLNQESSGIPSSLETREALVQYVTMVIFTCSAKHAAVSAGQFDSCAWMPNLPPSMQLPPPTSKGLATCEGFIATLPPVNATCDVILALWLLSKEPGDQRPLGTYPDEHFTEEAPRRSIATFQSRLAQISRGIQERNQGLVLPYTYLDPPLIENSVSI

Homo sapiens [11] = species on record: Homo sapiens; experiment: Selectivity ratio of IC50 for human reticulocyte N-terminally His6-tagged 15-lipoxygenase-2 to IC50 for human platelet-type N-terminally His6-tagged 12-lipoxygenase
[12] = system: Radical scavenging activity; experiment: Antioxidant activity assessed as DPPH radical scavenging activity at 5 uM; type: functional
[13] = target: T2, Polyunsaturated fatty acid lipoxygenase ALOX12 (Homo sapiens); conditions: 100 uM
[14] = target: T2, Polyunsaturated fatty acid lipoxygenase ALOX12 (Homo sapiens); conditions: 10 uM
[15] = target: T2, Polyunsaturated fatty acid lipoxygenase ALOX12 (Homo sapiens); conditions: 10 uM; remark: listed apart in the source
[16] = target: T1, Polyunsaturated fatty acid lipoxygenase ALOX12; experiment: cell-based

## CC(=O)NC(c1ccco1)c1cc(Cl)c2ccc(Cl)nc2c1O (configuration not stated)
[1]
  IC50: > 75 µM

## CCC(=O)NC(c1ccc(F)cc1)c1cc(Cl)c2cccnc2c1O (configuration not stated)
[1]
  IC50: > 50 µM

## CC(=O)NC(c1cccs1)c1cc(Cl)c2cccnc2c1O (configuration not stated)
[2]
  Kiuc: 0.8 µM
[3]
  Kic: 0.7 µM
[4]
  IC50: > 25 µM
Homo sapiens [5]
  Ratio IC50: > 100
Homo sapiens [6]
  Ratio IC50: 25
[7]
  IC50: > 100 µM

## CCC(=O)NC(c1ccco1)c1cc(Cl)c2c(c1O)NCCC2 (configuration not stated)
[1]
  IC50: 3 µM

## CC(C)(c1ccc(O)c(Br)c1)c1cc(Br)c(O)c(Br)c1
[8]
  IC50: 7 µM
[9]
  IC50: 5 µM

## CCC(=O)NC(c1ccco1)c1cc(Cl)c2cccnc2c1O (configuration not stated)
[10]
  IC50: > 100 µM
Homo sapiens [11]
  Ratio IC50: > 100
[4]
  IC50: > 50 µM
Homo sapiens [5]
  Ratio IC50: > 100
Homo sapiens [6]
  Ratio IC50: > 50
[7]
  IC50: > 100 µM

## CC(=O)NC(C)c1cc(Cl)c2cccnc2c1O (configuration not stated)
[1]
  IC50: > 150 µM

## CCC(=O)NC(c1cccs1)c1ccc2cccnc2c1O (configuration not stated)
[10]
  IC50: > 100 µM
Homo sapiens [11]
  Ratio IC50: > 29
[4]
  IC50: > 50 µM
Homo sapiens [5]
  Ratio IC50: > 29
Homo sapiens [6]
  Ratio IC50: > 15
[7]
  IC50: > 100 µM

## CC(=O)NC(c1ccco1)c1cc(Cl)c2ccccc2c1O (configuration not stated)
[1]
  IC50: > 75 µM

## Cc1ccc(C(=O)NC(c2ccco2)c2cc(Cl)c3cccnc3c2O)cc1 (configuration not stated)
[1]
  IC50: > 25 µM

## CCC(=O)NC(c1ccc(Br)o1)c1cc(Cl)c2cccnc2c1O (configuration not stated)
[1]
  IC50: > 75 µM

## Oc1c(Cl)cc(Cl)c2cccnc12 [CHLOROXINE]
[10]
  IC50: 28 µM
[4]
  IC50: 2.4 µM
[1]
  IC50: 1.9 µM
[7]
  IC50: 3.6 µM

## Oc1c(Br)c(Br)c(Br)c(Br)c1Oc1ccc(Br)cc1Br
[8]
  IC50: 0.7 µM
[9]
  IC50: 1.8 µM

## CC(=O)NC(C)c1cc(F)c2cccnc2c1O (configuration not stated)
[1]
  IC50: > 75 µM

## CC(Cc1ccc(O)c(O)c1)C(C)Cc1ccc(O)c(O)c1 (configuration not stated)
[12]
  Activity: Active

## O=C(NC(c1ccco1)c1cc(Cl)c2cccnc2c1O)c1ccccc1 (configuration not stated)
[1]
  IC50: > 25 µM

## CCC(=O)NC(c1cccs1)c1cc([N+](=O)[O-])c2cccnc2c1O (configuration not stated)
[13]
  inhibition: Active
[14]
  inhibition: 70%
[15]
  inhibition: 68.9%
[16]
  IC50: 15 µM
[4]
  IC50: > 25 µM
[12]
  Activity: inactive

## CCC(=O)NC(C)c1cc(Cl)c2cccnc2c1O (configuration not stated)
[1]
  IC50: > 50 µM

## CC(=O)NC(c1ccco1)c1cc(Cl)c2ccc(N(C)C)nc2c1O (configuration not stated)
[1]
  IC50: > 75 µM

## CC(=O)NC(c1ccco1)c1cc(Cl)c2ccc(N3CCCCC3)nc2c1O (configuration not stated)
[1]
  IC50: > 75 µM

## CCC(=O)NC(c1ccco1)c1cc(Cl)c2cccnc2c1OC (configuration not stated)
[1]
  IC50: > 75 µM

## CC(=O)NCc1cc(Cl)c2cccnc2c1O
[1]
  IC50: > 150 µM
